Data published in patent publication US10822664B2, “Sequence-specific detection and phenotype determination” (priority 2015, dated 2020).

How the values were obtained:
[1] = test system: E. coli 1289018, 1289023, 1289027, and 1289011; test: CRISPR/Cas9 cell-reporter AST assay; type: cell-based
Source text: Enterobacteriaceae cell reporters as described in PCT/US2014/026536, Example 1 are designed with reporter plasmids that also carry single-guide[14] CRISPR/Cas9 systems with CRISPR loci that carry sequences targeting blaNDM-1 and blaSHV-18 genes (Table 1, SEQ ID NOs 11 & 13) a carbapenem resistance and extended β-lactam resistance gene, respectively. The reporter plasmid pGWP10001 is modified to include the cas9 gene, tracrRNA under the control of the PL(tetO-1) promoter, and a CRISPR cloning site, and CRISPR loci are designed to target the blaNDM-1 (SEQ ID NO 4) and blaSHV-18 (SEQ ID NO 5) genes and each are cloned into pGWP10001/CRISPR/Cas9 vectors to generate reporter plasmids that simultaneously target the blaNDM-1 and blaSHV-18 genes.
The vectors are used to generate non-replicative transduction particles carrying each plasmid and these are employed in a reporter system for determining the mechanism responsible to β-lactam non-susceptibility. Briefly, cultures of E. coli 1289018 (blaNDM-1, blaSHV-18-negative), 1289023 (blaNDM-1-positive), 1289027 (blaSHV-positive), and 1289011 (blaVIM-positive) are prepared and used to inoculate wells of a microwell plate containing 50 μL of LB with 50 μL of inoculum such that each well receives 10^4 CFU of each strain of bacteria. To these wells 100 μL of the following is added: a set of wells contain 5 μg/mL of meropenem and blaNDM-1-targetting NRTP, another set of wells contain 5 μg/mL of meropenem and blaSHV-18-NRTP, another set of wells contain 5 μg/mL of ceftazidime and blaNDM-1-targetting NRTP, and another set of wells contain 5 μg/mL of ceftazidime and blaSHV-18-NRTP. The samples are then incubated at 30° C. for 2 hours and then the samples are assayed for luminescence as described in Example 1.

[2] = test system: E. coli 1289011, 1289012, 1289014, and 1289018; test: AST meropenem/peptide-PNA disk diffusion testing; type: cell-based; settings: for meropenem disk diffusion result: 10 μg meropenem disk, FIG. 4; for zone diameter compared to that of meropenem alone: 10 μg meropenem disk including peptide-PNA
Method: Disk diffusion testing is conducted following CLSI-M02 (12) and interpreted following M100-S22 (13). Briefly, for testing each bacterium for susceptibility to meropenem, a Mueller-Hinton agar (MHA) plates are inoculated using a sterile cotton swab dipped into a suspension of a culture of bacteria at a 0.5 McFarland standard such that the entire surface of the MHA is covered. A 10 μg meropenem disk is applied to the surface of the inoculated plate and the plate is incubated at 35° C. in ambient air for 16 to 18 hours. The strain of bacteria is determined to be susceptible to meropenem if the diameter of the zone of inhibition around the meropenem disk is ≥23 mm and resistant to meropenem if the zone diameter is ≤19 mm.
The second row of FIG. 4 depicts the typical meropenem disk diffusion results for the E. coli strains where 1289011, 1289012, and 1289014 are CRE and 1289018 is CSE.
To determine the specific mechanism linked to the meropenem-resistant phenotype, disk diffusion testing is conducted with 10 μg meropenem disks including blaKPC-3- and blaNDM-1-peptide-PNA. If the peptide-PNA inhibits the specific carbapenemase linked to the meropenem resistance in the E. coli strain, then the zone diameter observed will be […] when compared to the zone diameter of the strain when exposed to a disk containing only meropenem.

[3] = test system: E. coli 1289011, 1289012, 1289014, and 1289018; test: Peptide-PNA cell-reporter AST assay (Enterobacteriaceae reporter); type: cell-based
Method: In this example, the AST technique described in Example 2 is extended to AST testing based on cell-reporter assays. An Enterobacteriaceae cell reporter as described in PCT/US2014/026536, Example 1 is employed and the assay is run as follows. Briefly, cultures of E. coli 1289011, 1289012, 1289014, and 1289018 are prepared and used to inoculate wells of a microwell plate containing 50 μL of LB with 50 μL of inoculum such that each well receives 10^4 CFU of each strain of bacteria. A set of wells contain no additional additives, another set of wells contain 5 μg/mL of meropenem, another set of wells contain 5 μg/mL of meropenem and blaKPC-3-peptide-PNA, another set of wells contain 5 μg/mL of meropenem and blaNDM-1-peptide-PNA, and another two set of wells contain only blaKPC-3 or blaNDM-1 peptide-PNA, respectively. All wells also receive 100 μL of the Enterobacteriaceae reporter. The samples are then incubated at 30° C. for 2 hours and then the samples are assayed for luminescence as described in Example 1.

Enterococcus spp. = test: VRE cell-reporter assay (Enterococcus reporter); type: cell-based, E. faecalis, E. faecium, E. casseliflavus; settings: 5 μg/mL vancomycin, FIG. 7 column 2
Source text: In this example an Enterococcus cell reporter is employed in combination with vancomycin and antisense molecules targeting vanC-2 gene expression. The assay allows for the detection of VRE and discrimination from vancomycin-sensitive Enterococcus (VSE) and Enterococcus expressing the vanC-2 gene and not the vanA or vanB genes. The Enterococcus reporter is designed to cause Enterococcus spp. to produce a detectable signal. A Peptide-PNA is designed to target vanC-2 transcripts.
Briefly, cultures of VSE E. faecalis 1259012, vanA-positive VRE E. faecalis 1259016, VSE E. faecium 1269011, vanB-positive VRE E. faecium 1269014, and vanC-2-positive vancomycin non-susceptible E. casseliflavus 1279015 are prepared and used to inoculate wells of a microwell plate containing 50 μL of LB with 50 μL of inoculum such that each well receives 10^4 CFU of each strain of bacteria. A set of wells contains no additional additives, another set of wells contains 5 μg/mL of vancomycin, and another set of wells contains 5 μg/mL of vancomycin and vanC-2-peptide-PNA. All wells also receive 100 μL of the Enterococcus reporter. The samples are then incubated at 37° C. for 2 hours and then the samples are assayed for luminescence as described in Example 1.

E. coli [4] = test: Effect of murA PNA on growth (OD600) of E. coli; type: cell-based; settings: murA PNA 4.5 μM in LB; OD600 over 8 hours; FIG. 1
Method: (§1) Isolates of E. coli and K. pneumoniae were grown overnight in LB at 37° C. and sub-cultured the next day at a 1:100 dilution into fresh LB and grown to an optical density at 600 nm (OD600) of 0.2. Inoculums of each strain of approximately 10^4 CFU of each species of bacteria were added to separate wells of a microplate each containing 50 μL of LB or LB with murA PNA at a final concentration of 4.5 μM. OD600 readings were measured over a period of 8 hours to assess growth of PNA-treated and PNA-untreated cells.

K. pneumoniae [5] = test: Effect of murA PNA on growth (OD600) of K. pneumoniae; type: cell-based; settings: murA PNA 4.5 μM in LB; OD600 over 8 hours; FIG. 2
Method: as §1

E. coli [6] = test: Enterobacteriaceae luminescent-reporter NRTP assay with murA PNA, E. coli; type: cell-based; settings: murA PNA 4.5 μM, 30° C. for 2 hours, FIG. 3
Method: (§2) Isolates of E. coli and K. pneumoniae were grown overnight in LB at 37° C. and sub-cultured the next day at a 1:100 dilution into fresh LB and grown to an OD600 of 0.2. Inoculums of each strain of approximately 10^4 CFU of each species of bacteria were added to separate wells of a microplate each containing 50 μL of LB or LB with murA PNA at a final concentration of 4.5 μM. All wells subsequently received 100 uL of an Enterobacteriaceae luminescent-reporter non-replicative transduction particle as described in PCT/US2014/026536, Example 1 and the samples were incubated at 30° C. for 2 hours. After the incubation period, the plates were assayed for luminescence using a Molecular Devices SpectraMax L microplate luminometer in which a solution of tridecanal was injected into each well as luminescence readings were taken.

K. pneumoniae [7] = test: Enterobacteriaceae luminescent-reporter NRTP assay with murA PNA, K. pneumoniae; type: cell-based; settings: murA PNA 4.5 μM, 30° C. for 2 hours, FIG. 3
Method: as §2

[8] = E. coli 1289018, 5 μg/mL β-lactam, regardless of which NRTP, FIG. 6 row 1
[9] = E. coli 1289011, 5 μg/mL meropenem and peptide-PNA
[10] = E. coli 1289012, 5 μg/mL meropenem and peptide-PNA
[11] = E. coli 1289014, 5 μg/mL meropenem and peptide-PNA

Row | Molecule | inhibition in reporter assay [1, 8] | zone diameter compared to that of meropenem alone ([2]; E. coli 1289011) | zone diameter compared to that of meropenem alone ([2]; E. coli 1289012) | zone diameter compared to that of meropenem alone ([2]; E. coli 1289014) | reporter assay signal [3, 9] | reporter assay signal [3, 10] | reporter assay signal [3, 11] | other results
1 | CC(C)(O/N=C(\C(=O)N[C@@H]1C(=O)N2C(C(=O)[O-])=C(C[n+]3ccccc3)CS[C@H]12)c1csc(N)n1)C(=O)O [ceftazidime] | inhibited | – | – | – | – | – | – | –
2 | C[C@@H](O)[C@H]1C(=O)N2C(C(=O)O)=C(S[C@@H]3CN[C@H](C(=O)N(C)C)C3)[C@H](C)[C@H]12 [meropenem, reference compound] | inhibited | – | – | – | – | – | – | meropenem disk diffusion result ([2]; E. coli 1289011): CRE; meropenem disk diffusion result ([2]; E. coli 1289012): CRE; meropenem disk diffusion result ([2]; E. coli 1289014): CRE; meropenem disk diffusion result ([2]; E. coli 1289018): CSE; reporter assay signal ([3]; 5 μg/mL meropenem, all E. coli strains except 1289018, FIG. 5 column 2): continue to give a positive signal; inhibition in reporter assay ([1]; E. coli 1289027 (blaSHV-positive), 5 μg/mL meropenem, FIG. 6 row 3): inhibited
3 | CN[C@H](CC(C)C)C(=O)N[C@H]1C(=O)N[C@@H](CC(N)=O)C(=O)N[C@H]2C(=O)N[C@H]3C(=O)N[C@H](C(=O)N[C@H](C(=O)O)c4cc(O)cc(O)c4-c4cc3ccc4O)[C@H](O)c3ccc(c(Cl)c3)Oc3cc2cc(c3O[C@@H]2O[C@H](CO)[C@@H](O)[C@H](O)[C@H]2O[C@H]2C[C@](C)(N)[C@H](O)[C@H](C)O2)Oc2ccc(cc2Cl)[C@H]1O [vancomycin] | – | – | – | – | – | – | – | reporter assay signal (Enterococcus spp.; strains expressing a van gene): continue to give a positive signal; reporter assay signal (Enterococcus spp.; strains not carrying a van gene): do not
4 | KFFKFFKFFK-eg-ccatttagtt (CCATTTAGTT; all peptide nucleic acid (PNA); further chemistry not fully specified) [murA PNA] | – | – | – | – | – | – | – | growth of E. coli (E. coli [4]): compromised; growth of K. pneumoniae (K. pneumoniae [5]): not compromised; luminescence signal produced by E. coli (E. coli [6]): compromised; luminescence signal produced by K. pneumoniae (K. pneumoniae [7]): does not inhibit signal production
5 | blaKPC-3 peptide-PNA: PNA (SEQ ID NO 2) targeting the TIR of blaKPC-3, conjugated to the peptide KFFKFFKFFK (TCAACGATAT; all peptide nucleic acid (PNA); further chemistry not fully specified) | – | not reduced | reduced | not reduced | continues to produce a positive signal | no longer produces a positive signal | continues to produce a positive signal | –
6 | blaNDM-1 peptide-PNA: PNA (SEQ ID NO 3) targeting the TIR of blaNDM-1, conjugated to the peptide KFFKFFKFFK (TCAAGTTTTCC; all peptide nucleic acid (PNA); further chemistry not fully specified) | – | not reduced | not reduced | reduced | continues to produce a positive signal | continues to produce a positive signal | no longer produces a positive signal | –
